What was measured:
aromatase = molecular target: T1, aromatase (Homo sapiens, UniProt P11511); details: in vivo studies; cited from earlier work
T1 sequence (P11511 1-503): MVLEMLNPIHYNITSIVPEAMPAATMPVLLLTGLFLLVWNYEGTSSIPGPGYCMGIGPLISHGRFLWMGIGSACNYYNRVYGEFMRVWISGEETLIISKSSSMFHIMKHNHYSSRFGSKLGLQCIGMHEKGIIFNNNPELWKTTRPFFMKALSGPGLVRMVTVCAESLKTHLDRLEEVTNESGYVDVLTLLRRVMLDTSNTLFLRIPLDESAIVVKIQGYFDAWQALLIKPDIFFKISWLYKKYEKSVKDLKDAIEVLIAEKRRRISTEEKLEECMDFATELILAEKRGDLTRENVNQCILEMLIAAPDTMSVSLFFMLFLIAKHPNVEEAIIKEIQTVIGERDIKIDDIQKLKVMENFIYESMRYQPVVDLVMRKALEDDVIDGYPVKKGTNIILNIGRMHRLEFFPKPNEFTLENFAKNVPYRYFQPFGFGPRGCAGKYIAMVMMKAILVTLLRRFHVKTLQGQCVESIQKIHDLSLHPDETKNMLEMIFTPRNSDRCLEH

GnHR receptor = molecular target: T2, GnHR receptor (Homo sapiens, UniProt P30968); details: in vivo studies; cited from earlier work
T2 sequence (P30968 1-328): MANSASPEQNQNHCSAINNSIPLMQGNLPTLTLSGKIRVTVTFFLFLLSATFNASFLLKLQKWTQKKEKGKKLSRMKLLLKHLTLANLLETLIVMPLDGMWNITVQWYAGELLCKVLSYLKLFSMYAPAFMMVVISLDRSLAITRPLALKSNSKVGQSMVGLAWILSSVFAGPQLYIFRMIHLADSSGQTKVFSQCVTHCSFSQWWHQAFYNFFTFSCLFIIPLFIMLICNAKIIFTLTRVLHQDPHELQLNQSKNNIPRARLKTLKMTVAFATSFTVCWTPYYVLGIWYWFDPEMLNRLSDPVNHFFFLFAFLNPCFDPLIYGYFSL

estrogen receptor = molecular target: T3, estrogen receptor (Homo sapiens, UniProt P03372); details: cited from earlier work
T3 sequence (P03372 1-595): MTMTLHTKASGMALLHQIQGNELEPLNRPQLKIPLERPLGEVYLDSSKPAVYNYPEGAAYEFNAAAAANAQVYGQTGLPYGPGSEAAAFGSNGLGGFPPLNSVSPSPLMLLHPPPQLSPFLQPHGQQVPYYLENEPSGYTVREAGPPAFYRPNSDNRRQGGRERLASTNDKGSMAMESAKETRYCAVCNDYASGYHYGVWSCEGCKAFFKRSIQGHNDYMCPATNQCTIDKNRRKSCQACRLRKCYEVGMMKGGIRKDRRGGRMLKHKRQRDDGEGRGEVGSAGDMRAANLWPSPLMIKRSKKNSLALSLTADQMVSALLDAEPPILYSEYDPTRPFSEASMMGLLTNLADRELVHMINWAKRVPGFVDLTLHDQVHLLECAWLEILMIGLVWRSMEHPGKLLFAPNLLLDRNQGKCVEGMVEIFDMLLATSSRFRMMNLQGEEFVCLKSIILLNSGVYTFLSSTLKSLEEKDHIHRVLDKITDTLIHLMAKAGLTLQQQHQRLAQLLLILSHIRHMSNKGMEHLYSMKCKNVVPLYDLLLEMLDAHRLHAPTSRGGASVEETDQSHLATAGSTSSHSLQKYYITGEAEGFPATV

estrogen receptors = details: compared with estrodiol; cited from earlier work
human tumor xenographs = details: doses from 0.75 mg/kg/day to 1.5 mg/kg/day; cited from earlier work
ETAR = molecular target: T4, ETAR (Homo sapiens, UniProt P25101); details: cited from earlier work
T4 sequence (P25101 21-427): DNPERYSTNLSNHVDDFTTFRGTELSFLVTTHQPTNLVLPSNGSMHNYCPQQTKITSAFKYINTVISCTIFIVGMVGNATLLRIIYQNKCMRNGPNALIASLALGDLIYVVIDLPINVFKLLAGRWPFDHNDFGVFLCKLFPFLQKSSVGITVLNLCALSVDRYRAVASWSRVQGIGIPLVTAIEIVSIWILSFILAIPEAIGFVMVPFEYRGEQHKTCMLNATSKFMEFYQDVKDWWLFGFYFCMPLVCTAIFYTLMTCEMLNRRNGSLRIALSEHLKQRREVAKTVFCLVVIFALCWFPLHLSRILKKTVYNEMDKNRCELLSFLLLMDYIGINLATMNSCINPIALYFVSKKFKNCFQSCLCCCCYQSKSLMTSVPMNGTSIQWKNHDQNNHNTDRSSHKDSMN

ETBR = molecular target: T5, ETBR (Homo sapiens, UniProt P24530); details: cited from earlier work
T5 sequence (P24530 27-442): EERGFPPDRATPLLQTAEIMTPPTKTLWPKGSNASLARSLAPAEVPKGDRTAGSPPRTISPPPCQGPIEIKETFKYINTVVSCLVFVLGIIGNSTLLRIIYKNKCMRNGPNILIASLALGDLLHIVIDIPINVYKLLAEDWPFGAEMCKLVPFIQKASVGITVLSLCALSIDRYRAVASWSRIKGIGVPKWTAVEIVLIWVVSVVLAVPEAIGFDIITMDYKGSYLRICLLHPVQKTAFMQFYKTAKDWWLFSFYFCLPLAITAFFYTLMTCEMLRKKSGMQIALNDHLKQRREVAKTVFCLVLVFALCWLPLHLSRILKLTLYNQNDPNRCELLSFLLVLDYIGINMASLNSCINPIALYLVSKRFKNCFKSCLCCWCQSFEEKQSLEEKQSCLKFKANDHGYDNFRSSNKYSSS

[1] = system: subcutaneous cancer xenografts; experiment: Mouse xenograft model, oral administration; assay type: in vivo; details: BZL101 0.5 ml oral gavage every third day; cyclophosphamide 25 mg/Kg/day in drinking water; FIG. 6
Method: As in Example 1, above, 10^5 cells were administered to each animal subcutaneously on Day 0. The animals were divided into four groups. The control group received only normal drinking water. The cyclophosphamide only group received 25 mg/Kg/day of cyclophosphamide in their drinking water.

SMILES: CC(C)(C#N)c1cc(Cn2cncn2)cc(C(C)(C)C#N)c1 [Anastrozole]
- serum estradiol concentrations (aromatase): significantly lowers serum estradiol concentrations

SMILES: CC(C)C[C@H](NC(=O)[C@@H](COC(C)(C)C)NC(=O)[C@H](Cc1ccc(O)cc1)NC(=O)[C@H](CO)NC(=O)[C@H](Cc1c[nH]c2ccccc12)NC(=O)[C@H](Cc1cnc[nH]1)NC(=O)[C@@H]1CCC(=O)N1)C(=O)N[C@@H](CCCNC(=N)N)C(=O)N1CCC[C@H]1C(=O)NNC(N)=O [Goserelin]
- production of FSH and LH and sex hormones, initial effect (GnHR receptor): initial increase in production of FSH and LH
- time after which the receptor is downregulated and LH or FSH levels fall (GnHR receptor): 14 to 21 days

SMILES: C[C@]12CC[C@@H]3c4ccc(O)cc4C[C@@H](CCCCCCCCC[S+]([O-])CCCC(F)(F)C(F)(F)F)[C@H]3[C@@H]1CC[C@@H]2O (stereo partly drawn) [Fulvestrant]
- effect on estrogen receptor level (estrogen receptor): downregulates and degrades the estrogen receptor
- affinity for estrogen receptors (estrogen receptors): affinity that is similar to that of estrodiol

SMILES: COc1cc2c(Oc3ccc4[nH]c(C)cc4c3F)ncnc2cc1OCCCN1CCCC1 [AZD 2171]
- tumor angiogenesis (human tumor xenographs): inhibited tumor angiogenesis

SMILES: COc1nc(C)cnc1NS(=O)(=O)c1cccnc1-c1ccc(-c2nnco2)cc1 [ZD4054]
- binding to ETAR (ETAR): only binds to ETAR
- effect on ETBR (ETBR): no detectable effect on ETBR

SMILES: O=P1(N(CCCl)CCCl)NCCCO1 (stereo not drawn) [cyclophosphamide]
- tumor growth in xenograft [1]: inhibited tumor growth as compared to the control
